Assay results: paper PMC6268079, “Synthesis and Biological Evaluation of 2-(3-Fluoro-4-nitro phenoxy)-N-phenylacetamide Derivatives as Novel Potential Affordable Antitubercular Agents” (Molecules, 2012)
≈ marks a conversion by molar mass, not a printed value. Where two headings read alike, the source gives them in different places.

Legend:
[1] = system: SKOV-3 ovarian carcinoma cells; assay: MTT-based cytotoxicity assay, SKOV-3; format: cell-based; conditions: Homo sapiens
Method: (§1) Briefly, cells (2,500/well) were seeded in 96-well plates and cultured for 24 h, followed by treatment with the target compounds for another 48 h. MTT ([…], 20 μL) was added per well and incubated for another 2.5 h at 37 °C. Then the supernatant fluid was removed and 150 μL/well DMSO was added for 15–20 min. The absorbance (OD) of each well was measured at 570 nm, using a SpectraMAX M5 microplate spectrophotometer (Molecular Devices, Sunnyvale, CA, USA). The IC50 Values are means ± SEM of three independent experiments.

[2] = system: M. tuberculosis H37Rv (ATCC 27294); assay: Antitubercular activity by microdilution method, M. tuberculosis H37Rv; format: cell-based; conditions: Mycobacterium tuberculosis, 264 h, growth similar to well inoculated with 10 CFU, read after 11 days by visual investigation, three replicates
[3] = system: HepG2 hepatocellular liver carcinoma cells; assay: MTT-based cytotoxicity assay, HepG2; format: cell-based; conditions: Homo sapiens
Method: as §1

[4] = system: A375 human melanoma cells; assay: MTT-based cytotoxicity assay, A375; format: cell-based
Method: as §1

[5] = system: A549 lung adenocarcinoma epithelial cells; assay: MTT-based cytotoxicity assay, A549; format: cell-based; conditions: Homo sapiens
Method: as §1

[6] = system: Vero normal African green monkey kidney epithelial cells; assay: MTT-based cytotoxicity assay, Vero; format: cell-based; conditions: for IC50: Chlorocebus sabaeus
Method: as §1

[7] = system: Hela Henrietta Lacks strain cancer cells; assay: MTT-based cytotoxicity assay, Hela; format: cell-based; conditions: Homo sapiens
Method: as §1

[8] = system: HCT116 colorectal carcinoma cells; assay: MTT-based cytotoxicity assay, HCT116; format: cell-based; conditions: Homo sapiens
Method: as §1

[9] = system: six different tumor cell lines; assay: MTT-based cytotoxicity assay, six cell lines stated together
Method: as §1

[10] = SK-OV-3, SKOV-3, MTT, 48 h treatment, means ± SEM of three independent experiments, read-out: IC50
[11] = HepG2, MTT, 48 h treatment, means ± SEM of three independent experiments, read-out: IC50
[12] = A-375, A375, MTT, 48 h treatment, means ± SEM of three independent experiments, read-out: IC50
[13] = A549, MTT, 48 h treatment, means ± SEM of three independent experiments, read-out: IC50
[14] = Vero normal cells, MTT, 48 h treatment, means ± SEM of three independent experiments, read-out: IC50
[15] = Hela, MTT, 48 h treatment, means ± SEM of three independent experiments, read-out: IC50
[16] = HCT-116, HCT116, MTT, 48 h treatment, means ± SEM of three independent experiments, read-out: IC50

## O=C(COc1ccc([N+](=O)[O-])c(F)c1)Nc1cccc(Cl)c1 [Compound 3a, N-(3-Chlorophenyl)-2-(3-fluoro-4-nitrophenoxy)acetamide]
[1]; [10]
  IC50: > 40 µM
[2]
  MIC: 16 µg/mL (≈ 49.3 µM)
[3]; [11]
  IC50: > 40 µM
other
  melting point: 150 to 151 °C
[4]; [12]
  IC50: > 40 µM
[5]; [13]
  IC50: > 40 µM
[6]; [14]
  IC50: > 40 µM
[7]; [15]
  IC50: > 40 µM
[8]; [16]
  IC50: > 40 µM

## O=C(COc1ccc([N+](=O)[O-])c(F)c1)Nc1ccc(Cl)c(Cl)c1 [Compound 3b, N-(3,4-Dichlorophenyl)-2-(3-fluoro-4-nitrophenoxy)acetamide]
[2]
  MIC: 32 µg/mL (≈ 89.1 µM)
other
  melting point: 175 to 176 °C

## O=C(COc1ccc([N+](=O)[O-])c(F)c1)Nc1ccc(Br)cc1F [Compound 3c, N-(4-Bromo-2-fluorophenyl)-2-(3-fluoro-4-nitrophenoxy)acetamide]
[2]
  MIC: 32 µg/mL (≈ 82.7 µM)
other
  melting point: 160 to 162 °C

## O=C(COc1ccc([N+](=O)[O-])c(F)c1)Nc1ccc(Cl)c(C(F)(F)F)c1 [Compound 3d, N-(4-Chloro-3-(trifluoromethyl)phenyl)-2-(3-fluoro-4-nitrophenoxy)acetamide]
[1]; [10]
  IC50: > 40 µM
[2]
  MIC: 16 µg/mL (≈ 40.7 µM)
[3]; [11]
  IC50: > 40 µM
other
  melting point: 163 to 164 °C
[4]; [12]
  IC50: > 40 µM
[5]; [13]
  IC50: > 40 µM
[6]; [14]
  IC50: > 40 µM
[7]; [15]
  IC50: 33.2 ± 2.5 µM
[8]; [16]
  IC50: > 40 µM

## O=C(COc1ccc([N+](=O)[O-])c(F)c1)Nc1cccc([N+](=O)[O-])c1 [Compound 3e, 2-(3-Fluoro-4-nitrophenoxy)-N-(3-nitrophenyl)acetamide]
[2]
  MIC: 64 µg/mL (≈ 191 µM)
other
  melting point: 199 to 201 °C

## COc1ccc(NC(=O)COc2ccc([N+](=O)[O-])c(F)c2)c(OC)c1 [Compound 3f, N-(2,4-Dimethoxyphenyl)-2-(3-fluoro-4-nitrophenoxy)acetamide]
[2]
  MIC: 64 µg/mL (≈ 183 µM)
other
  melting point: 174 to 175 °C

## O=C(COc1ccc([N+](=O)[O-])c(F)c1)Nc1cc(C(F)(F)F)cc(C(F)(F)F)c1 [Compound 3g, N-(3,5-bis(Trifluoromethyl)phenyl)-2-(3-fluoro-4-nitrophenoxy)acetamide]
[1]; [10]
  IC50: 12.2 ± 1.3 µM
[2]
  MIC: 8 µg/mL (≈ 18.8 µM)
[3]; [11]
  IC50: 21.6 ± 1.1 µM
other
  melting point: 168 to 169 °C
[4]; [12]
  IC50: 22.6 ± 0.9 µM
[5]; [13]
  IC50: 38.2 ± 1.5 µM
[6]; [14]
  IC50: > 40 µM
[7]; [15]
  IC50: 20 ± 1.1 µM
[8]; [16]
  IC50: 33.8 ± 2 µM

## O=C(COc1ccc([N+](=O)[O-])c(F)c1)Nc1ccc(F)c(Cl)c1 [Compound 3h, N-(3-Chloro-4-fluorophenyl)-2-(3-fluoro-4-nitrophenoxy)acetamide]
[1]; [10]
  IC50: > 40 µM
[2]
  MIC: 16 µg/mL (≈ 46.7 µM)
[3]; [11]
  IC50: > 40 µM
other
  melting point: 166 to 167 °C
[4]; [12]
  IC50: > 40 µM
[5]; [13]
  IC50: > 40 µM
[6]; [14]
  IC50: > 40 µM
[7]; [15]
  IC50: > 40 µM
[8]; [16]
  IC50: > 40 µM

## O=C(COc1ccc([N+](=O)[O-])c(F)c1)Nc1ccc(Br)cc1 [Compound 3i, N-(4-Bromophenyl)-2-(3-fluoro-4-nitrophenoxy)acetamide]
[2]
  MIC: 32 µg/mL (≈ 86.7 µM)
other
  melting point: 166 to 167 °C

## N#Cc1ccccc1NC(=O)COc1ccc([N+](=O)[O-])c(F)c1 [Compound 3j, N-(2-Cyanophenyl)-2-(3-fluoro-4-nitrophenoxy)acetamide]
[2]
  MIC: 64 µg/mL (≈ 203 µM)
other
  melting point: 172 to 174 °C

## O=C(COc1ccc([N+](=O)[O-])c(F)c1)Nc1ccccc1C(F)(F)F [Compound 3k, 2-(3-Fluoro-4-nitrophenoxy)-N-(2-(trifluoromethyl)phenyl)acetamide]
[2]
  MIC: 64 µg/mL (≈ 179 µM)
other
  melting point: 146 to 147 °C

## O=C(COc1ccc([N+](=O)[O-])c(F)c1)Nc1ccc(OC(F)(F)F)cc1 [Compound 3l, 2-(3-Fluoro-4-nitrophenoxy)-N-(4-(trifluoromethoxy)phenyl)acetamide]
[2]
  MIC: 32 µg/mL (≈ 85.5 µM)
other
  melting point: 146 to 148 °C

## O=C(COc1ccc([N+](=O)[O-])c(F)c1)Nc1ccccc1[N+](=O)[O-] [Compound 3m, 2-(3-Fluoro-4-nitrophenoxy)-N-(2-nitrophenyl)acetamide]
[1]; SK-OV-3, 48 h
  IC50: > 40 µM
[2]
  MIC: 4 µg/mL (≈ 11.9 µM)
[9]; one bound stated for all six cell lines, read-out: IC50 against the tested six different cell lines
  IC50: > 40 µM
[9]; result in words
  inhibitory effects against six different tumor cell lines: no inhibitory effects
  safety profile / toxicity in six different cell lines: good safety profile
[3]; HepG2, 48 h
  IC50: > 40 µM
other
  melting point: 201 to 202 °C
[4]; A-375, 48 h
  IC50: > 40 µM
[5]; A549, 48 h
  IC50: > 40 µM
[6]; Vero, 48 h
  IC50: > 40 µM
[6]; MTT assay, result in words
  safety profile in a vero cell line: good safety profile
[7]; HeLa, 48 h
  IC50: > 40 µM
[8]; HCT-116, 48 h
  IC50: > 40 µM

## O=C(COc1ccc([N+](=O)[O-])c(F)c1)Nc1ccc(Br)cc1Cl [Compound 3n, N-(4-Bromo-2-chlorophenyl)-2-(3-fluoro-4-nitrophenoxy)acetamide]
[2]
  MIC: 32 µg/mL (≈ 79.3 µM)
other
  melting point: 173 to 175 °C

## O=C(COc1ccc([N+](=O)[O-])c(F)c1)Nc1ccc(C(F)(F)F)cc1 [Compound 3o, 2-(3-Fluoro-4-nitrophenoxy)-N-(4-(trifluoromethyl)phenyl)acetamide]
[1]; [10]
  IC50: 28.6 ± 2.3 µM
[2]
  MIC: 16 µg/mL (≈ 44.7 µM)
[3]; [11]
  IC50: > 40 µM
other
  melting point: 173 to 175 °C
[4]; [12]
  IC50: 28.3 ± 1.2 µM
[5]; [13]
  IC50: > 40 µM
[6]; [14]
  IC50: > 40 µM
[7]; [15]
  IC50: 33.8 ± 1.7 µM
[8]; [16]
  IC50: > 40 µM

## Cc1ccc([N+](=O)[O-])cc1NC(=O)COc1ccc([N+](=O)[O-])c(F)c1 [Compound 3p, 2-(3-Fluoro-4-nitrophenoxy)-N-(2-methyl-5-nitrophenyl)acetamide]
[2]
  MIC: 64 µg/mL (≈ 183 µM)
other
  melting point: 211 to 213 °C

## COC(=O)COc1ccc(NC(=O)COc2ccc(C)cc2C)cc1 [I, methyl 2-(4-(2-(2,4-dimethylphenoxy)acetamido)phenoxy)acetate]
[2]
  MIC: 4 µg/mL (≈ 11.6 µM)

## NNC(=O)c1ccncc1 [Isoniazide]
[2]
  MIC: 0.0625 µg/mL (≈ 0.456 µM)
